Laboratory results published in ChEMBL document CHEMBL1201862, “PubChem BioAssay data set” (2004).
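96-well plates; 48 h exposure; 5 concentrations. Endpoints by linear interpolation between flanking doses. Not reached: highest tested concentration assigned. The concentration for 50% growth inhibition is given as GI50.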 Calls of active or inactive are those of the source. No stated cut-off is given here; in the data, active = GI50 up to about 1.1 µM and inactive = higher.

Experiments:
Test in all cases: DTP human tumour cell line panel, 48 h
[1] = system: HCT-116
[2] = system: MOLT-4
[3] = system: M14
[4] = system: Malme-3M
[5] = system: HCC 2998
[6] = system: ACHN
[7] = system: KM12
[8] = system: HL-60
[9] = system: NCI-H522
[10] = system: SN12C
[11] = system: LOX IMVI
[12] = system: HCT-15
[13] = system: U-251
[14] = system: CAKI-1
[15] = system: OVCAR-3
[16] = system: A498
[17] = system: HOP-92
[18] = system: OVCAR-4
[19] = system: A549
[20] = system: RPMI-8226

Measured: GI50

Oc1ccc(-c2ccccc2)nn1
inactive: [1] > 100 µM | [2] > 100 µM | [3] > 100 µM | [4] > 100 µM | [5] > 100 µM | [6] > 100 µM | [7] > 100 µM | [8] > 100 µM | [9] > 100 µM | [10] > 100 µM | [11] > 100 µM | [13] > 100 µM | [14] > 100 µM | [15] > 100 µM | [16] > 100 µM | [17] > 100 µM | [18] > 100 µM | [19] > 100 µM
> 100 µM: [12]

O=c1[nH]c2cc(C(F)(F)F)ccc2nc1Cc1ccccc1
inactive: [20] > 100 µM | [1] 71.6 µM | [2] > 100 µM | [3] > 100 µM | [5] > 100 µM | [6] 52.6 µM | [7] > 100 µM | [8] > 100 µM | [11] > 100 µM | [13] 76 µM | [14] 60.4 µM | [16] 85.9 µM | [17] 18.5 µM | [18] 63.7 µM
> 100 µM: [12]

CCCCC/C(C=O)=C\c1ccccc1
inactive: [20] > 100 µM | [1] > 100 µM | [2] 65.8 µM | [3] > 100 µM | [5] > 100 µM | [6] > 100 µM | [7] > 100 µM | [8] > 100 µM | [11] > 100 µM | [13] > 100 µM | [14] > 100 µM | [16] > 100 µM | [17] > 100 µM | [18] > 100 µM
> 100 µM: [12]

CCOC(=O)/C=C1\Nc2ccccc2-n2nnnc21
inactive: [20] 64.9 µM | [1] > 100 µM | [2] > 100 µM | [3] > 100 µM | [4] > 100 µM | [5] > 100 µM | [6] > 100 µM | [7] > 100 µM | [8] > 100 µM | [10] > 100 µM | [11] > 100 µM | [13] 22.1 µM | [14] > 100 µM | [15] > 100 µM | [16] > 100 µM | [17] > 100 µM | [18] > 100 µM | [19] > 100 µM
> 100 µM: [12]
